For four compounds, MIC results are on record in DBAASP.

What all share (experiment): ≥ marks a high value that may be exact or a test limit, other limits are often not marked, values filed in µg/mL are converted to µM
The subject of assay [1] is Cryptococcus neoformans ATCC 32045.
The subject of assay [2] is Candida albicans ATCC 10231.
The test system of assay [3] is Staphylococcus aureus ATCC 33591.
Assay [4] relates to Escherichia coli ATCC 2592.
Assay [5] has as its system Pseudomonas aeruginosa ATCC 10145.
For assay [6], the system named is Pseudomonas aeruginosa H187.
A further assay has as its system Escherichia coli UB1005.
Assay [7] has as its system Candida tropicalis CGMCC 2.1975.
For assay [8], the system named is Staphylococcus aureus ATCC 25923.
In assay [9] the test system is Staphylococcus epidermidis ATCC 12228.
The test system of assay [10] is Salmonella enterica subsp. enterica serovar Choleraesuis CVCC 503.
The test system of another assay is Candida albicans.
Assay [11] concerns Pseudomonas aeruginosa ATCC 27853.
The test system of assay [12] is Candida parapsilosis CGMCC 2.3989.
Assay [13] deals with Staphylococcus aureus ATCC 43300.
The subject of assay [14] is Salmonella enterica subsp. enterica serovar Typhimurium C77-31.
The subject of assay [15] is Enterococcus faecalis ATCC 29212.
In assay [16] the test system is Salmonella enterica subsp. enterica serovar Typhimurium ATCC 14028.
For assay [17], the system named is Pseudomonas aeruginosa PAO1.
The subject of assay [18] is Staphylococcus aureus ATCC 29213.

≈ marks a conversion by molar mass, not a printed value. Where only a bound is given, the exact number is not on record here.

On to `C[C@H](NC(=O)[C@H](Cc1ccccc1)NC(=O)[C@H](CCCCN)NC(=O)[C@H](CCCCN)NC(=O)[C@H](C)NC(=O)[C@H](Cc1ccccc1)NC(=O)[C@H](CCCCN)NC(=O)[C@H](CCCCN)NC(=O)[C@H](C)NC(=O)[C@H](Cc1ccccc1)NC(=O)[C@H](CCCCN)NC(=O)[C@H](CCCCN)NC(=O)[C@H](C)NC(=O)[C@H](Cc1ccccc1)NC(=O)[C@H](CCCCN)NC(=O)[C@H](CCCCN)NC(=O)[C@H](C)NC(=O)[C@H](Cc1ccccc1)NC(=O)[C@H](CCCCN)NC(=O)[C@H](CCCCN)NC(=O)[C@H](C)NC(=O)[C@@H](N)Cc1ccccc1)C(=O)N[C@@H](CCCCN)C(=O)N[C@@H](CCCCN)C(=O)O` [FAKKFAKKFAKKFAKKFAKKFAKK], for which the MIC in assay [1] was 7.9 µM (≈ 22.6 µg/mL); in assay [2] it was 61.7 µM (≈ 177 µg/mL); in assay [3] it was no less than 87.2 µM; in assay [4], 8.14 µM (≈ 23.3 µg/mL); in assay [5], 21.6 µM (≈ 62 µg/mL).

Turning to `CC[C@H](C)[C@H](NC(=O)[C@H](Cc1ccccc1)NC(=O)[C@H](CO)NC(=O)[C@H](CCCCN)NC(=O)[C@H](Cc1c[nH]c2ccccc12)NC(=O)[C@@H](N)CCCCN)C(=O)N[C@@H](CCCCN)C(=O)N[C@@H](CC(N)=O)C(=O)N[C@@H](CC(C)C)C(=O)N[C@@H](CCC(=O)O)C(=O)N[C@@H](CCCCN)C(=O)N[C@H](C(=O)N[C@@H](CC(C)C)C(=O)N[C@@H](CCCCN)C(=O)N[C@@H](CCCCN)C(=O)NCC(=O)N1CCC[C@H]1C(=O)N[C@H](C(=O)N[C@@H](CC(C)C)C(=O)N[C@@H](C)C(=O)N[C@@H](CC(N)=O)C(=O)N[C@@H](CC(C)C)C(=O)N[C@H](C(=O)N[C@@H](CO)C(=O)N[C@H](C(=O)N[C@H](C(=O)O)C(C)C)[C@@H](C)CC)C(C)C)[C@@H](C)CC)C(C)C` [KWKSFIKNLEKVLKKGPILANLVSIV], the MIC in assay [6] turned out to be 2.7 µM (≈ 8 µg/mL); in the assay on Escherichia coli UB1005, 0.674 µM (≈ 2 µg/mL).

Take `CC(C)C[C@H](NC(=O)[C@H](CCCN=C(N)N)NC(=O)[C@H](C)NC(=O)[C@H](CS)NC(=O)[C@H](CC(C)C)NC(=O)[C@H](CCCCN)NC(=O)[C@H](CCCCN)NC(=O)[C@H](CC(C)C)NC(=O)[C@H](CCCN=C(N)N)NC(=O)[C@H](C)NC(=O)[C@H](CS)NC(=O)[C@H](CC(C)C)NC(=O)[C@H](CCCCN)NC(=O)[C@H](CCCCN)NC(=O)[C@H](CC(C)C)NC(=O)[C@H](CCCN=C(N)N)NC(=O)[C@H](C)NC(=O)[C@H](CS)NC(=O)[C@H](CC(C)C)NC(=O)[C@H](CCCCN)NC(=O)[C@H](CCCCN)NC(=O)[C@@H](N)CC(C)C)C(=O)N[C@@H](CCCCN)C(=O)N[C@@H](CCCCN)C(=O)N[C@@H](CC(C)C)C(=O)N[C@@H](CS)C(=O)N[C@@H](C)C(=O)N[C@@H](CCCN=C(N)N)C(N)=O` [LKKLCARLKKLCARLKKLCARLKKLCAR]: the MIC in assay [7] was 2 µM (≈ 6.54 µg/mL); in assay [8] it was greater than 64 µM; in [9] it was greater than 64 µM; in assay [10], no less than 64 µM; against Candida albicans it was 5.66 µM (≈ 18.5 µg/mL); in assay [11], greater than 64 µM. Further, the MIC in assay [12] is 4 µM (≈ 13.1 µg/mL); in assay [13], greater than 64 µM; in [14] it was no less than 64 µM; in [15], greater than 64 µM; against Escherichia coli UB1005, 2 µM (≈ 6.54 µg/mL); in [16] it was greater than 64 µM. Moreover, the MIC in assay [17] and in [18] was greater than 64 µM throughout.

Regarding `C[C@H](NC(=O)[C@H](CCCCN)NC(=O)[C@H](Cc1ccccc1)NC(=O)[C@H](C)NC(=O)[C@H](CCCCN)NC(=O)[C@H](Cc1ccccc1)NC(=O)[C@H](C)NC(=O)[C@H](CCCCN)NC(=O)[C@H](Cc1ccccc1)NC(=O)[C@H](C)NC(=O)[C@H](CCCCN)NC(=O)[C@H](Cc1ccccc1)NC(=O)[C@H](C)NC(=O)[C@H](CCCCN)NC(=O)[C@H](Cc1ccccc1)NC(=O)[C@H](C)NC(=O)[C@H](CCCCN)NC(=O)[C@H](Cc1ccccc1)NC(=O)[C@H](C)NC(=O)[C@H](CCCCN)NC(=O)[C@H](Cc1ccccc1)NC(=O)[C@H](C)NC(=O)[C@H](CCCCN)NC(=O)[C@@H](N)Cc1ccccc1)C(=O)O` [FKAFKAFKAFKAFKAFKAFKAFKA], the minimum inhibitory concentration (MIC) in assay [1] is 8.11 µM (≈ 22.6 µg/mL); in assay [2] it was 127 µM (≈ 354 µg/mL); in assay [3], no less than 179 µM; in assay [4] it was 8.11 µM (≈ 22.6 µg/mL); in assay [5] it was 8.96 µM (≈ 25 µg/mL).

As usually defined, the MIC is the lowest concentration found to suppress growth. A high value points to a need for much substance.
